{"source": "patent US12207655B2", "about": "“Protoporphyrin IX derivatives and use thereof to improve the health of plants” (priority 2019, dated 2025)", "key": {"Sclerotinia homoeocarpa": {"test_system": "Sclerotinia homoeocarpa", "experiment": "Control of dollar spot fungus: radial growth of fungal plugs on PDA after treatment in PBS, dark vs light", "type": "cell-based", "conditions": "31 μM + 0.21% BrijO10:ArlasolveDMI (1:4); for Mean Radial Growth: growth between 24 and 48 hours at 21° C; for % Inhibition: relative to non-amended control", "method": "In this example, control of dollar spot fungus (Sclerotinia homoeocarpa) with PP IX and modified PP IX was assessed. Treatments were prepared in Phosphate Buffered Saline (PBS) in 24 well plates (in duplicates for light vs. dark incubation) at desired concentrations. Then, a 5 mm diameter plug of a Sclerotinia homoeocarpa isolate (3 isolates total tested) was inoculated into the PBS and incubated at 21° C. in the dark for 2 hours. After 2 hours, one of the 24 well plates (with isolates in triplicate) was left in the dark and one 24 well plate was placed under illumination for 1 hour (all at […]). Following illumination, fungal plugs were removed from PBS, blotted dry on sterile filter paper and transferred to non-amended Potato Dextrose Agar (PDA). Radial growth of the fungus was monitored daily until the growth of S. homoeocarpa reaches the edge of the Petri-dish. Illumination was provided by LED lights emitting about 1000 μmol/m2/s photosynthetically active radiation (PAR)."}, "[1]": {"test_system": "Pseudomonas syringae pv. tabaci", "experiment": "Photodynamic control of Pseudomonas syringae pv. tabaci in PBS, colony counts after illumination", "type": "cell-based", "conditions": "30 min dark then 1 hour illumination (about 1000 μmol/m2/s PAR), PBS control 8.7", "method": "In this example, control of the gram-negative bacterial plant pathogen Pseudomonas syringae pv. tabaci with PP IX and modified PP IX was assessed, with and without chelating agents. Treatments were prepared in Phosphate Buffered Saline (PBS) in 96 well plates at desired concentrations. A bacterial suspension was inoculated into the PBS and incubated at 28° C. in the dark for 30 minutes. After 30 minutes, the 96 well plate was placed under illumination for 1 hour (at 21° C.). Following illumination, bacterial suspensions were serially diluted and 10 μL of each dilution is spread uniformly on Tryptic Soy Agar (TSA) plates and placed in the dark in an incubator at 28° C. for 48 hours. After 48 hours, bacterial colonies were counted, and the results were log transformed (log colony forming units (CFU)/mL). The relative inactivation was determined by taking the difference between log CFU (PBS control) and log CFU (treatments). Sample Illumination was provided by LED lights (Heliospectra RX30) emitting about 1000 μmol/m^2/s photosynthetically active radiation (PAR)."}}}
{"substance": "Protoporphyrin IX disodium salt [PP IX disodium salt]", "values": [{"measurement": "Mean Radial Growth", "setting": "Sclerotinia homoeocarpa; Dark (no light exposure), PBS control 10.1", "result": 10.5}, {"measurement": "% Inhibition", "setting": "Sclerotinia homoeocarpa; Dark (no light exposure)", "result": "−3.8", "unit": "%"}, {"measurement": "Mean Radial Growth", "setting": "Sclerotinia homoeocarpa; Exposed to light for 1 hour (1000 PAR), PBS control 10.2", "result": 0.0}, {"measurement": "% Inhibition", "setting": "Sclerotinia homoeocarpa; Exposed to light for 1 hour (1000 PAR)", "result": 100.0, "unit": "%"}, {"measurement": "log CFU/ml", "setting": "[1]; 10 μM + 5 mM NaEDTA in PBS", "result": 3.8, "unit": "log CFU/ml"}, {"measurement": "log CFU/ml", "setting": "[1]; 10 μM in PBS, no chelating agent", "result": 7.4, "unit": "log CFU/ml"}]}
